The results in this text go back to patent US20230416232A1, “PYRIMIDINE COMPOUNDS, COMPOSITIONS, AND MEDICINAL APPLICATIONS THEREOF” (Blueprint Medicines Corporation, priority 2020, published 2023).

In general, IC50 refers to the concentration that inhibits the measured activity by half.

Holding throughout (format): cell-based
The target of assay [1] is EGFR (A767_dupASV) expressing Ba/F3 stable cell line (Homo sapiens, UniProt P00533, DUP767-769, cells depend on it). Kind of assay: Cellular proliferation (Alamar Blue) assay, EGFR (A767_dupASV) Ba/F3. As to conditions: 72 hr, read-out: A767 IC50. The essentials: (§1)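 Compound treatment lasted 72 h at 37 °C across a final 10-0.0005 μM range in 3-fold steps; cell growth was measured with Alamar Blue (3 h). Ba/F3 seeded at 15,000 and A431 at 5000 cells/well.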

A further assay concerns A431 cells. Kind of assay: Cellular proliferation (Alamar Blue) assay, A431 cells. As to conditions: Homo sapiens, A-431, 72 h, A431 cells; 72 hr; Alamar Blue; read-out: A431 IC50. In a few lines:
as §1

Assay [2] addresses EGFR(D770_N771insSVD) expressing Ba/F3 stable cell line (Homo sapiens, UniProt P00533, DUP768-770, cells depend on it). Kind of assay: Cellular proliferation (Alamar Blue) assay, EGFR(D770_N771insSVD) Ba/F3. To be noted: 72 hr, read-out: D770 IC50. The essentials: as §1
In general terms: The colour change of resazurin is a common sign of viable cells or microbes.

The target in assay [3] is HER2 (A775_G776insYVMA) expressing Ba/F3 stable cell line (Homo sapiens, UniProt P04626, DUP772-775, cells depend on it). Kind of assay: Cellular proliferation (Alamar Blue) assay, HER2 (A775_G776insYVMA) Ba/F3. As to conditions: HER2 (A775_G776insYVMA) Ba/F3 cells; 72 hr; Alamar Blue; read-out: YVMA IC50. The essentials:
as §1

Structures are written as SMILES.

Sequence of HER2 (A775_G776insYVMA) expressing Ba/F3 stable cell line (P04626 with tags, fused parts or gaps DUP772-775): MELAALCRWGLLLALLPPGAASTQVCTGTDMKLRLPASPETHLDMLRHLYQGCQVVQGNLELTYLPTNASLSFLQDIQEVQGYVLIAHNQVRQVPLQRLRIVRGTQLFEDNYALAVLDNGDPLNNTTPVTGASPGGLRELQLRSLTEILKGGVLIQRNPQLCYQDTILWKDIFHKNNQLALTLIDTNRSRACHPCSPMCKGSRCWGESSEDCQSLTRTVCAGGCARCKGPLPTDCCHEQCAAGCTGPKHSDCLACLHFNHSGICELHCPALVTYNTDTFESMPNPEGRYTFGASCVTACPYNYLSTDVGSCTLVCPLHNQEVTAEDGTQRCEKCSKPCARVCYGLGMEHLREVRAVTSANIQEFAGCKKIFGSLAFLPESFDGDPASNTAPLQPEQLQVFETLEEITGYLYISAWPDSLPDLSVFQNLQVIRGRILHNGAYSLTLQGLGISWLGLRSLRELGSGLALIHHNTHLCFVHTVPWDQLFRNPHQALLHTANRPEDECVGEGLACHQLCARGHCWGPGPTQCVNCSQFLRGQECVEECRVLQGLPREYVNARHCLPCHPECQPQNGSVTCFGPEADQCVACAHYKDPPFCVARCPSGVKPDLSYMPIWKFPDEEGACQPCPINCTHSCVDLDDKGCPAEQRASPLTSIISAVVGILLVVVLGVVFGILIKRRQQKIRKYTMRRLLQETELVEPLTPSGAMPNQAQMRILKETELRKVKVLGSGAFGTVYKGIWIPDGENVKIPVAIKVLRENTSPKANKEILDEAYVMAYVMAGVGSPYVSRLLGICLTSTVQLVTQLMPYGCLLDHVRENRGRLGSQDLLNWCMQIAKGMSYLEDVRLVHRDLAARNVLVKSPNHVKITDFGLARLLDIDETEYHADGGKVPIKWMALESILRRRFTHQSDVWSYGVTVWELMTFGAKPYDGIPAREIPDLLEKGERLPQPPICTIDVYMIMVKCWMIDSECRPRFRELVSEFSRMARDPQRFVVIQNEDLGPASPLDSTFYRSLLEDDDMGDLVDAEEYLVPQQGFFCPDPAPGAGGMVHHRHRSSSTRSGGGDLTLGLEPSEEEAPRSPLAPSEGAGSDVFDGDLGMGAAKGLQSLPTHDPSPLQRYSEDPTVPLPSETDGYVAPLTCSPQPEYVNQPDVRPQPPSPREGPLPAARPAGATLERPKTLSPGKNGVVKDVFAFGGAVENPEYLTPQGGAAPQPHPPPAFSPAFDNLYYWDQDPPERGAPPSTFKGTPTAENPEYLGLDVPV
Sequence of EGFR(D770_N771insSVD) expressing Ba/F3 stable cell line (P00533 with tags, fused parts or gaps DUP768-770): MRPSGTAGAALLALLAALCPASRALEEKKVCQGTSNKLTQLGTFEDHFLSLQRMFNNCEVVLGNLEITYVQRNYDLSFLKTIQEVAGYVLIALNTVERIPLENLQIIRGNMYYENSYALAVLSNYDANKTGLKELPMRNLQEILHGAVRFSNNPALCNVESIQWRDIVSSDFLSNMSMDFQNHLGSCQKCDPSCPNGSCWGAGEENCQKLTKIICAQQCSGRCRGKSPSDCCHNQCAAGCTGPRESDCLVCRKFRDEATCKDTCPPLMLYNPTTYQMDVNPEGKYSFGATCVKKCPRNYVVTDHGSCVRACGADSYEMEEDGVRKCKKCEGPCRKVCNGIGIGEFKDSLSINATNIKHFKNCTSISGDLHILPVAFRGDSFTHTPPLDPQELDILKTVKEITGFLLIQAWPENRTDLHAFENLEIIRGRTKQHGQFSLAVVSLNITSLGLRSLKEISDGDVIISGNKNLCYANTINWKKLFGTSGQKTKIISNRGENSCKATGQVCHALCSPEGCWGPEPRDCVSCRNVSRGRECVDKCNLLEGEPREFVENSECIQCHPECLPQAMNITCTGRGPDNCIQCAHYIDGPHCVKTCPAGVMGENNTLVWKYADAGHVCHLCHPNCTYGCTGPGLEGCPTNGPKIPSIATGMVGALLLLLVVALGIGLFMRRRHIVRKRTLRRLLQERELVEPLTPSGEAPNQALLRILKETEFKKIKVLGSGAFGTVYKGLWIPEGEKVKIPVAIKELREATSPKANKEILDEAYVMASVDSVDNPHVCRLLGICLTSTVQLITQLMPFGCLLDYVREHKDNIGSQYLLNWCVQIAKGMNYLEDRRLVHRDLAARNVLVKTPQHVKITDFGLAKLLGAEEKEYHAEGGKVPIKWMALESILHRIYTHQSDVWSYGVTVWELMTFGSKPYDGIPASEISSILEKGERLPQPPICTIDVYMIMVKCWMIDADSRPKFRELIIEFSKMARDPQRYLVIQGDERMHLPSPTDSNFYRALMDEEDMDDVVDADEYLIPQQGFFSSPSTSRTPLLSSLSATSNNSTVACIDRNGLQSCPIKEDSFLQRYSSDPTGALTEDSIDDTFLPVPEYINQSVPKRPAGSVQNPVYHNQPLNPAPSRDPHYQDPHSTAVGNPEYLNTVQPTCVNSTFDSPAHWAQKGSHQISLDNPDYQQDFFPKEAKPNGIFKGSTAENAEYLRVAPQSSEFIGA
Sequence of EGFR (A767_dupASV) expressing Ba/F3 stable cell line (P00533 with tags, fused parts or gaps DUP767-769): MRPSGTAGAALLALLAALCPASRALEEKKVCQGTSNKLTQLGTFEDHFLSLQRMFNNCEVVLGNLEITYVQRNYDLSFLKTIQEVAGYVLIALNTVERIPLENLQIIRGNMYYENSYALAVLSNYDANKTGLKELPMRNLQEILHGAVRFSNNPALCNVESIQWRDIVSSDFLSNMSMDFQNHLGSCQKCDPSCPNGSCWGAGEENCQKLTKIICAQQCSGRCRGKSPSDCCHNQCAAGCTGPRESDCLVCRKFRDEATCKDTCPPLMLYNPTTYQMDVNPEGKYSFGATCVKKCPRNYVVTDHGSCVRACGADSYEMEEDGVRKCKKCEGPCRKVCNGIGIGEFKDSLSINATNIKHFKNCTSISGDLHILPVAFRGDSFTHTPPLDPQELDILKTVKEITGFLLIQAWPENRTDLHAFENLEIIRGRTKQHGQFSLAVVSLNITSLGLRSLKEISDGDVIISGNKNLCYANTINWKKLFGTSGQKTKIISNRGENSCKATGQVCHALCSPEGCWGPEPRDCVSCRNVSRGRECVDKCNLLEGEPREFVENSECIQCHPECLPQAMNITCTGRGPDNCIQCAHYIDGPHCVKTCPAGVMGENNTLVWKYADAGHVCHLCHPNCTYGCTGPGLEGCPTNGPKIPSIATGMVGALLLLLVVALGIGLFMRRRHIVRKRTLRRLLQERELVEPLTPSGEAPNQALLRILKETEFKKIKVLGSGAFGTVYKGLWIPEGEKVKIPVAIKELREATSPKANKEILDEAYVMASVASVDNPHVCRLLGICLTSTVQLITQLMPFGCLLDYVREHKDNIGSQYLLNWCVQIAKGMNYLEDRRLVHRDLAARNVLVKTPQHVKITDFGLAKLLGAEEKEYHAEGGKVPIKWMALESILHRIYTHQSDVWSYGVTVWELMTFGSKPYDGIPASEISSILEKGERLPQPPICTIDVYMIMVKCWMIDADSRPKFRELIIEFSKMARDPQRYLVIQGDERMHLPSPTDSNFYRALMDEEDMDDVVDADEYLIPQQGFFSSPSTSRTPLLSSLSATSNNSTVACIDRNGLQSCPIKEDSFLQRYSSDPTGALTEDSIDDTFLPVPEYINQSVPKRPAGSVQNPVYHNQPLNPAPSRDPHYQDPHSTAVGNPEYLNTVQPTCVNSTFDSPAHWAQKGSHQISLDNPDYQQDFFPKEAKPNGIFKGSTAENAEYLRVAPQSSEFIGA

Turning to `C=CC(=O)Nc1cc(F)c(F)c(Nc2nc(Nc3cnn(C)c3)ncc2-c2cc(F)cc(OC)c2)c1` [Compound 170, N-(3,4-difluoro-5-((5-(3-fluoro-5-methoxyphenyl)-2-((1-methyl-1H-pyrazol-4-yl)amino)pyrimidin-4-yl)amino)phenyl)acrylamide], the GI50 is greater than 10000 nM in assay [1], greater than 10000 nM in assay [2] and greater than 9040 nM in assay [3]. Besides, the 50% inhibitory concentration (IC50) in the assay with A431 cells is 5250 nM.
As to `C=CC(=O)Nc1ccc(F)c(Nc2nc(Nc3cnn(C)c3)ncc2-c2cnc(Cl)c(C(F)(F)F)c2)c1` [Compound 44, N-(3-((5-(6-chloro-5-(trifluoromethyl)pyridin-3-yl)-2-((1-methyl-1H-pyrazol-4-yl)amino)pyrimidin-4-yl)amino)-4-fluorophenyl)acrylamidet], the values for the GI50 in assay [1], in assay [2] and in assay [3] were 15 nM, 24 nM and 36 nM, respectively. Further, the IC50 in the assay on A431 cells came out at 52 nM.
Taken in the same sequence, the figures for `C=CC(=O)Nc1ccc(F)c(Nc2nc(Nc3cnn(C)c3)ncc2-c2ccc(N3CCC3)c(F)c2)c1` [Compound 80, N-(3-((5-(4-(azetidin-1-yl)-3-fluorophenyl)-2-((1-methyl-1H-pyrazol-4-yl)amino)pyrimidin-4-yl)amino)-4-fluorophenyl)acrylamide] were 43 nM, 95 nM, 171 nM and 54 nM.
On the same counts, the results for `C=CC(=O)Nc1ccc(F)c(Nc2nc(Nc3cnn(C)c3)ncc2-c2ccc(F)c(OC)c2)c1` [Compound 4, N-(4-fluoro-3-((5-(4-fluoro-3-methoxyphenyl)-2-((1-methyl-1H-pyrazol-4-yl)amino)pyrimidin-4-yl)amino)phenyl)acrylamide] are 293 nM, 295 nM, 262 nM and greater than 10000 nM.
For `C=CC(=O)Nc1ccc(F)c(Nc2nc(Nc3cnn(C)c3)ncc2-c2c(F)cccc2OC)c1` [Compound 63, N-(4-fluoro-3-((5-(2-fluoro-6-methoxyphenyl)-2-((1-methyl-1H-pyrazol-4-yl)amino)pyrimidin-4-yl)amino)phenyl)acrylamide], the GI50 in assay [1] was 3090 nM; in assay [2], 3270 nM; in assay [3], 884 nM. Also, the IC50 in the assay on A431 cells is greater than 10000 nM.
On the same counts, the results for `C=CC(=O)Nc1cccc(Nc2nc(Nc3cnn(C)c3)ncc2-c2ccc(Br)c(F)c2)c1` [Compound 115, N-(3-((5-(4-bromo-3-fluorophenyl)-2-((1-methyl-1H-pyrazol-4-yl)amino)pyrimidin-4-yl)amino)phenyl)acrylamide] are 36 nM, 32 nM, 86 nM and 11 nM.
Regarding `C=CC(=O)Nc1ccc(F)c(Nc2nc(Nc3cnn(C)c3)ncc2-c2cc(F)c(F)c(OC(F)F)c2)c1` [Compound 160, N-(3-((5-(3-(difluoromethoxy)-4,5-difluorophenyl)-2-((1-methyl-1H-pyrazol-4-yl)amino)pyrimidin-4-yl)amino)-4-fluorophenyl)acrylamide], the GI50 turned out to be 63 nM in assay [1], 68 nM in assay [2] and 163 nM in assay [3]. The IC50 in the assay on A431 cells is 261 nM.
Taken in the same sequence, the figures for `C=CC(=O)Nc1cc(F)cc(Nc2nc(Nc3cnn(C)c3)ncc2-c2cc(F)c(Br)c(Cl)c2)c1` [Compound 163, N-(3-((5-(4-bromo-3-chloro-5-fluorophenyl)-2-((1-methyl-1H-pyrazol-4-yl)amino)pyrimidin-4-yl)amino)-5-fluorophenyl)acrylamide] were 22 nM, 26 nM, 104 nM and 128 nM.
On the same counts, the results for `C=CC(=O)Nc1ccc(F)c(Nc2nc(Nc3cnn(C)c3)ncc2-c2ccc(OC)c(C(F)(F)F)c2)c1` [Compound 22, N-(4-fluoro-3-((5-(4-methoxy-3-(trifluoromethyl)phenyl)-2-((1-methyl-1H-pyrazol-4-yl)amino)pyrimidin-4-yl)amino)phenyl)acrylamide] are 428 nM, 329 nM, 890 nM and greater than 10000 nM.
